Assays:
[1] = target: T1, full-length proMMP9(1-707) (SEQ ID NO:1), activation by catalytic MMP3 (Homo sapiens, UniProt P14780, R574P); assay: ProMMP9/MMP3 DQ Gelatin Activation Assay; type: biochemical; details: read-out: ProMMP9/MMP3 DQ gel Activation Assay, IC50
T1 construct: made in house; host or cells: HEK293 (transient, secreted)
From the text: ProMMP9/MMP3 DQ Gelatin Activation Assay

[2] = target: T2, proMMP9(67-444;ΔFnII) (SEQ ID NO:5) (Homo sapiens, UniProt P14780, DEL216-390); assay: ThermoFluor binding assay with proMMP9(67-444;ΔFnII)
T2 construct: start methionine (N); made in house; host or cells: E. coli BL21(DE3) RIL
T2 sequence (P14780 with tags, fused parts or gaps DEL216-390): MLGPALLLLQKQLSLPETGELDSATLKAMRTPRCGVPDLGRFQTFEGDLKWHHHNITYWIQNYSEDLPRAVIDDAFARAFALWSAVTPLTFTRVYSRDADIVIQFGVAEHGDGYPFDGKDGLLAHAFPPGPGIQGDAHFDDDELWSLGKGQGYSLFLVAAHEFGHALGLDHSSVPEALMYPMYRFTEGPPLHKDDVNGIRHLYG
Description: (§1) The ThermoFluor® (TF) assay is a 384-well plate-based binding assay that measures thermal stability of proteins (Biomol Screen 2001, 6, 429-40; Biochemistry 2005, 44, 5258-66). The experiments were carried out using instruments available from Johnson & Johnson Pharmaceutical Research & Development, LLC. TF dye used in all experiments was […] (1,8-ANS) (Invitrogen: A-47).
(§2) Compounds were arranged in a pre-dispensed plate (Greiner Bio-one: 781280), wherein compounds were serially diluted in 100% DMSO across 11 columns within a series. Columns 12 and 24 were used as DMSO reference and contained no compound. For multiple compound concentration-response experiments, the compound aliquots ([…]) were robotically predispensed directly into black 384-well polypropylene PCR microplates (Abgene: TF-0384/k) using a Cartesian Hummingbird liquid handler (DigiLab, Holliston, Mass.). Following compound dispense, protein and dye solutions were added to achieve the final assay volume of 3 μL. The assay solutions were overlayed with 1 μL of silicone oil (Fluka, type DC 200: 85411) to prevent evaporation.
(§3) Assay plates were robotically loaded onto a thermostatically controlled PCR-type thermal block and then heated from 40 to 90° C. at a ramp-rate of 1° C./min for all experiments. Fluorescence was measured by continuous illumination with UV light (Hamamatsu LC6) supplied via fiber optics and filtered through a band-pass filter (380-400 nm; >60D cutoff). Fluorescence emission of the entire 384-well plate was detected by measuring light intensity using a CCD camera (Sensys, Roper Scientific) filtered to detect 500±25 nm, resulting in simultaneous and independent readings of all 384 wells. A single image with 20-sec exposure time was collected at each temperature, and the sum of the pixel intensity in a given area of the assay plate was recorded vs temperature and fit to standard equations to yield the Tm (J Biomol Screen 2001, 6, 429-40).
(§4) Thermodynamic parameters necessary for fitting compound binding for each proMMP were estimated by differential scanning calorimetry (DSC) and from ThermoFluor® data. The heat capacity of unfolding for each protein was estimated from the molecular weight and from ThermoFluor® dosing data.
ThermoFluor® with proMMP9(67-444;ΔFnII (SEQ ID NO:5)
The protein sample preparations had to include a desalting buffer exchange step via a PD-10 gravity column (GE Healthcare). The desalting buffer exchange was performed prior to diluting the protein to the final assay concentration of 3.5 μM proMMP9(67-444;ΔFnII) (SEQ ID NO:5). The concentration of proMMP9(67-444;ΔFnII) (SEQ ID NO:5) was determined spectrophotometrically based on a calculated extinction coefficient of ε280=33900 M^−1 cm^−1, a calculated molecular weight of 22.6 kDa, and calculated pI of 5.20. ThermoFluor® reference conditions were defined as follows: 80 μg/mL (3.5 μM) proMMP9(67-444;ΔFnII) (SEQ ID NO:5), 50 μM 1,8-ANS, pH 7.0 Buffer (50 mM HEPES pH 7.0, 100 mM NaCl, 0.001% Tween-20, 2.5 mM MgCl2, 300 μM CaCl2). The thermodynamic parameters for proMMP9(67-444;ΔFnII) (SEQ ID NO:5) are as follows: Tm (° C.)=63 (+/−0.1), ΔUH(Tm) (cal mol^−1)=105000(+/−5000), ΔUS(Tm) (cal mol^−1 K^−1)=450, ΔuCp (cal mol^−1 K^−1)=2000.

[3] = target: T3, proMMP9(20-445;ΔFnII) (SEQ ID NO:6) (Homo sapiens, UniProt P14780, DEL216-390); assay: ThermoFluor binding assay with proMMP9(20-445;ΔFnII)
T3 construct: start methionine (N); made in house; host or cells: E. coli BL21(DE3) RIL
T3 sequence (P14780 with tags, fused parts or gaps DEL216-390): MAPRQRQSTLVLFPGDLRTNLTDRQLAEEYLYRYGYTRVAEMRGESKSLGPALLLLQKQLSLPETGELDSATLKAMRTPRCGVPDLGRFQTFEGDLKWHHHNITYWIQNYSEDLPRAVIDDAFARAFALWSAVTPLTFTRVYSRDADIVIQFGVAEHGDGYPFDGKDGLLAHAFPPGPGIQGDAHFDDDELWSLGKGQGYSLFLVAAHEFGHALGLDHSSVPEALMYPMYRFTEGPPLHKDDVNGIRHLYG
Description: as §1, §2, §3, §4
ThermoFluor® with proMMP9(20-445;ΔFnII (SEQ ID NO:6)
The protein sample preparations included a desalting buffer exchange step via a PD-10 gravity column (GE Healthcare). The desalting buffer exchange was performed prior to diluting the protein to the final assay concentration of 2.8 μM proMMP9(20-445;ΔFnII) (SEQ ID NO:6). The concentration of proMMP9(20-445;ΔFnII) (SEQ ID NO:6) was determined spectrophotometrically based on a calculated extinction coefficient of ε280=39880 M^−1 cm^−1, a calculated molecular weight of 28.2 kDa, and calculated pI of 5.5. ThermoFluor® reference conditions were define as follows: 80 μg/mL (2.8 μM) proMMP9(20-445;ΔFnII) (SEQ ID NO:6), 50 μM 1,8-ANS, pH 7.0 Buffer (50 mM HEPES pH 7.0, 100 mM NaCl, 0.001% Tween-20, 2.5 mM MgCl2, 300 μM CaCl2). The thermodynamic parameters for proMMP9(20-445;ΔFnII) (SEQ ID NO:6) are as follows: Tm (° C.)=72 (+/−0.1), ΔUH(Tm) (cal mol^−1)=160000(+/−5000), ΔUS(Tm) (cal mol^−1 K^−1)=434, ΔUCp (cal mol^−1 K^−1)=2400.

T1 sequence (P14780 20-707 R574P): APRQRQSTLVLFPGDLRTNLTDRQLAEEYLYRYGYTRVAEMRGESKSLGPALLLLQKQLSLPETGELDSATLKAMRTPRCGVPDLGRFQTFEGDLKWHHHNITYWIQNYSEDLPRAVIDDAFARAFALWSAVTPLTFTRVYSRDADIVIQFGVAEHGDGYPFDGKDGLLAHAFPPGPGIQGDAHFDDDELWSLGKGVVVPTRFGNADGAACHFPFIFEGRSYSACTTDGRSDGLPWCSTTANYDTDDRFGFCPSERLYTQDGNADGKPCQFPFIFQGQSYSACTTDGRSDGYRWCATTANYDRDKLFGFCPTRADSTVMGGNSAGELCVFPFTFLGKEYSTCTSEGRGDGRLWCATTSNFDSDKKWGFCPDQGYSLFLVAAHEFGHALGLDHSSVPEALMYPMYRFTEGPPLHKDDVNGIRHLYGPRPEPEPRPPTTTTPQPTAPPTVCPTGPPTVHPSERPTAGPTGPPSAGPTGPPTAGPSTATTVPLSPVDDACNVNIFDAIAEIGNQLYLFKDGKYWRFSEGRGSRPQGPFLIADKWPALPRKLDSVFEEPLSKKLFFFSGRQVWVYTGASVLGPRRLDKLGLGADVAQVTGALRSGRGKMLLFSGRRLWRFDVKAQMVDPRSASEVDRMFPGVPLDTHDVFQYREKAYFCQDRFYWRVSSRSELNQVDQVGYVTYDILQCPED

## COc1ccc([N+](=O)[O-])cc1Nc1nc(-c2cnc3ccccn23)cs1 [Example 28, (4-Imidazo[1,2-a]pyridin-3-yl-thiazol-2-yl)-(2-methoxy-5-nitro-phenyl)-amine]
[1]
  IC50: 5 µM
[2]
  Kd: > 28 µM
[3]
  Kd: > 29 µM

Source: US20120129872A1, “FUSED HETEROARYL INHIBITORS OF PRO-MATRIX METALLOPROTEINASE ACTIVATION” (priority 2010, published 2012)
